Measured values as given in ChEMBL document CHEMBL3779783, “Short cationic lipopeptides as effective antibacterial agents: Design, physicochemical properties and biological evaluation” (Bioorg Med Chem, 2016).
In brackets after ≈: the same amount, converted by molar mass. Activity calls are given as the source filed them. The calls are words filed in the database; no cut-off is given here. Starred links: 1 amine or outer side, 2 acyl side, 3 side chain; linkers in the order of their positions; H or OH if unused. Positions of bridges follow the written chain, without caps; N, C: chain ends. Non-standard residues stand in square brackets, D forms with d. Residues, ends and D or L forms follow the SMILES beside them. Groups on a side chain read outwards from the residue. ξ: configuration not given here. ξGly(decyl) = CCCCCCCCCCC(N)C(=O)O; Suc = O=C(CCC(=O)[*:2])[*:1]

Legend:
[1] = test system: Staphylococcus aureus; assay: Antimicrobial activity against methicillin-resistant Staphylococcus aureus ATCC 43300 after 20 hrs by microdilution assay; format: functional; conditions: ATCC 43300, 20 h
[2] = test system: Staphylococcus aureus; assay: Antimicrobial activity against methicillin-susceptible Staphylococcus aureus ATCC 25923 after 20 hrs by microdilution assay; format: functional; conditions: ATCC 25923, 20 h
[3] = test system: Staphylococcus aureus; assay: Antimicrobial activity against clinical isolates of multi-resistant/methicillin-resistant Staphylococcus aureus after 20 hrs by microdilution assay; format: functional
[4] = test system: Staphylococcus aureus; assay: Antimicrobial activity against glycopeptide-intermediate Staphylococcus aureus NRS17 after 20 hrs by microdilution assay; format: functional; conditions: NRS17, 20 h
[5] = test system: Staphylococcus aureus; assay: Antimicrobial activity against glycopeptide-intermediate Staphylococcus aureus NRS1 after 20 hrs by microdilution assay; format: functional; conditions: NRS1, 20 h
[6] = test system: Staphylococcus aureus; assay: Antimicrobial activity against clinical isolates of methicillin-resistant Staphylococcus aureus after 20 hrs by microdilution assay; format: functional
[7] = test system: Staphylococcus aureus; assay: Antimicrobial activity against vancomycin-resistant Staphylococcus aureus NARSA VRS4 after 20 hrs by microdilution assay; format: functional; conditions: NARSA VRS4, 20 h
[8] = test system: Staphylococcus aureus; assay: Antimicrobial activity against vancomycin-resistant Staphylococcus aureus NARSA VRS1 after 20 hrs by microdilution assay; format: functional; conditions: NARSA VRS1, 20 h
[9] = test system: Staphylococcus aureus; assay: Antimicrobial activity against vancomycin-resistant Staphylococcus aureus NARSA VRS10 after 20 hrs by microdilution assay; format: functional; conditions: NARSA VRS10, 20 h
[10] = test system: Streptococcus pneumoniae; assay: Antimicrobial activity against multidrug resistant Streptococcus pneumoniae ATCC 700677 after 20 hrs by microdilution assay; format: functional; conditions: ATCC 700677, 20 h
[11] = test system: Enterococcus faecalis; assay: Antimicrobial activity against clinical isolates of high level vancomycin-resistant Enterococcus faecalis after 20 hrs by microdilution assay; format: functional
[12] = test system: Enterococcus faecium; assay: Antimicrobial activity against multidrug resistant and high level vancomycin resistant Enterococcus faecium ATCC 51559 after 20 hrs by microdilution assay; format: functional; conditions: ATCC 51559, 20 h
[13] = test system: Escherichia coli; assay: Antimicrobial activity against Escherichia coli ATCC 25922 after 20 hrs by microdilution assay; format: functional
[14] = test system: Klebsiella pneumoniae; assay: Antimicrobial activity against multidrug resistant Klebsiella pneumoniae ATCC 700603 after 20 hrs by microdilution assay; format: functional
[15] = test system: Klebsiella pneumoniae; assay: Antimicrobial activity against Klebsiella pneumoniae ATCC 13883 after 20 hrs by microdilution assay; format: functional
[16] = test system: Acinetobacter baumannii; assay: Antimicrobial activity against Acinetobacter baumannii […] after 20 hrs by microdilution assay; format: functional
[17] = test system: Pseudomonas aeruginosa; assay: Antimicrobial activity against Pseudomonas aeruginosa ATCC 27853 after 20 hrs by microdilution assay; format: functional
[18] = test system: Klebsiella pneumoniae; assay: Antimicrobial activity against NDM-1 positive Klebsiella pneumoniae BAA-2146 after 20 hrs by microdilution assay; format: functional
[19] = Cytotoxicity against HEK293 cells after 24 hrs by MTT assay; format: cell-based; conditions: human
[20] = Cytotoxicity against human HepG2 cells after 24 hrs by MTT assay; format: cell-based
[21] = test system: Staphylococcus aureus; assay: Antimicrobial activity against methicillin-susceptible Staphylococcus aureus ATCC 25923 after 24 hrs by M7-A7 method; format: functional; conditions: ATCC 25923, 24 h
[22] = test system: Staphylococcus aureus; assay: Antimicrobial activity against methicillin-resistant Staphylococcus aureus ATCC 43300 after 24 hrs by M7-A7 method; format: functional; conditions: ATCC 43300, 24 h
[23] = test system: Staphylococcus aureus; assay: Antimicrobial activity against clinical isolates of multi-resistant/methicillin-resistant Staphylococcus aureus after 24 hrs by M7-A7 method; format: functional
[24] = test system: Staphylococcus aureus; assay: Antimicrobial activity against glycopeptide-intermediate Staphylococcus aureus NRS17 after 24 hrs by M7-A7 method; format: functional; conditions: NRS17, 24 h
[25] = test system: Staphylococcus aureus; assay: Antimicrobial activity against glycopeptide-intermediate Staphylococcus aureus NRS1 after 24 hrs by M7-A7 method; format: functional; conditions: NRS1, 24 h
[26] = test system: Staphylococcus aureus; assay: Antimicrobial activity against clinical isolates of methicillin-resistant Staphylococcus aureus after 24 hrs by M7-A7 method; format: functional
[27] = test system: Staphylococcus aureus; assay: Antimicrobial activity against vancomycin-resistant Staphylococcus aureus NARSA VRS4 after 24 hrs by M7-A7 method; format: functional; conditions: NARSA VRS4, 24 h
[28] = test system: Staphylococcus aureus; assay: Antimicrobial activity against vancomycin-resistant Staphylococcus aureus NARSA VRS1 after 24 hrs by M7-A7 method; format: functional; conditions: NARSA VRS1, 24 h
[29] = test system: Staphylococcus aureus; assay: Antimicrobial activity against vancomycin-resistant Staphylococcus aureus NARSA VRS10 after 24 hrs by M7-A7 method; format: functional; conditions: NARSA VRS10, 24 h
[30] = test system: Streptococcus pneumoniae; assay: Antimicrobial activity against multidrug resistant Streptococcus pneumoniae ATCC 700677 after 24 hrs by M7-A7 method; format: functional; conditions: ATCC 700677, 24 h
[31] = test system: Enterococcus faecalis; assay: Antimicrobial activity against clinical isolates of high level vancomycin-resistant Enterococcus faecalis after 24 hrs by M7-A7 method; format: functional
[32] = test system: Enterococcus faecium; assay: Antimicrobial activity against multidrug resistant and high level vancomycin resistant Enterococcus faecium ATCC 51559 after 24 hrs by M7-A7 method; format: functional; conditions: ATCC 51559, 24 h
[33] = test system: Escherichia coli; assay: Antimicrobial activity against Escherichia coli ATCC 25922 after 24 hrs by M7-A7 method; format: functional; conditions: ATCC 25922, 24 h
[34] = test system: Klebsiella pneumoniae; assay: Antimicrobial activity against multidrug resistant Klebsiella pneumoniae ATCC 700603 after 24 hrs by M7-A7 method; format: functional; conditions: Klebsiella pneumoniae, 700603, 24 h
[35] = test system: Klebsiella pneumoniae; assay: Antimicrobial activity against Klebsiella pneumoniae ATCC 13883 after 24 hrs by M7-A7 method; format: functional; conditions: ATCC 13883, 24 h
[36] = test system: Acinetobacter baumannii; assay: Antimicrobial activity against Acinetobacter baumannii […] after 24 hrs by M7-A7 method; format: functional
[37] = test system: Pseudomonas aeruginosa; assay: Antimicrobial activity against Pseudomonas aeruginosa ATCC 27853 after 24 hrs by M7-A7 method; format: functional; conditions: ATCC 27853, 24 h
[38] = test system: Klebsiella pneumoniae; assay: Antimicrobial activity against NDM-1 positive Klebsiella pneumoniae BAA-2146 after 24 hrs by M7-A7 method; format: functional; conditions: ATCC BAA-2146, 24 h
[39] = test system: Staphylococcus aureus; assay: Antimicrobial activity against methicillin-susceptible Staphylococcus aureus ATCC 25923 assessed as blister appearance on cell surface at 16 times MIC after 3 hrs by transmission electron microscopic analysis; format: functional, organism-based
[40] = test system: Staphylococcus aureus; assay: Antimicrobial activity against methicillin-susceptible Staphylococcus aureus ATCC 25923 assessed as surface blebs at 16 times MIC after 3 hrs by transmission electron microscopic analysis; format: functional, organism-based
[41] = Klebsiella pneumoniae, 700603, 20 h

Compound | MIC [1] [µM] | MIC [2] [µM] | MIC [3] [µM] | MIC [4] [µM] | MIC [5] [µM] | MIC [6] [µM] | MIC [7] [µM] | MIC [8] [µM] | MIC [9] [µM] | MIC [10] [µM] | MIC [11] [µM] | MIC [12] [µM] | MIC ([13]; ATCC 25922, 20 h) [µM] | MIC [14, 41] [µM] | MIC ([15]; ATCC 13883, 20 h) [µM] | MIC [16] [µM] | MIC ([17]; ATCC 27853, 20 h) [µM] | MIC ([18]; ATCC BAA-2146, 20 h) [µM] | CC50 at 24 h [19] [µM] | CC50 at 24 h [20] [µM] | also measured
CCCCCCCCCCC(NC(=O)C(CCCCNC(=O)C(CCCCN)NC(C)=O)NC(=O)C(CCCCN)NC(C)=O)C(N)=O (stereo not drawn) | > 30 | > 30 | > 30 | > 30 | > 30 | > 30 | > 30 | > 30 | > 30 | > 30 | 30 (≈ 20.5 µg/mL) | > 30 | > 30 | > 30 | > 30 | > 30 | > 30 | > 30 | > 15 | > 15 | –
CCCCCCCCCCC(NC(=O)C(CCCCN)NC(C)=O)C(N)=O (stereo not drawn) | > 30 | > 30 | > 30 | > 30 | > 30 | > 30 | > 30 | > 30 | > 30 | > 30 | 30 (≈ 11.5 µg/mL) | > 30 | > 30 | > 30 | > 30 | > 30 | > 30 | > 30 | > 15 | > 15 | –
CCCCCCCCCCC(NC(=O)C(CCCCCCCCCC)NC(=O)C(CCCCNC(=O)C(CCCCN)NC(C)=O)NC(=O)C(CCCCN)NC(C)=O)C(N)=O (stereo not drawn) (Ac-KK([Lys-Ac])[ξGly(decyl)][ξGly(decyl)]-NH2; configuration not given here) | 0.9 (≈ 0.792 µg/mL) | 3.75 (≈ 3.3 µg/mL) | 2.8 (≈ 2.46 µg/mL) | 7.5 (≈ 6.6 µg/mL) | 7.5 (≈ 6.6 µg/mL) | 5.6 (≈ 4.93 µg/mL) | 2.8 (≈ 2.46 µg/mL) | 1.9 (≈ 1.67 µg/mL) | 1.9 (≈ 1.67 µg/mL) | 2.8 (≈ 2.46 µg/mL) | 0.9 (≈ 0.792 µg/mL) | 0.9 (≈ 0.792 µg/mL) | > 30 | > 30 | > 30 | 30 (≈ 26.4 µg/mL) | 30 (≈ 26.4 µg/mL) | > 30 | > 15 | > 15 | –
CCCCCCCCCCC1NC(=O)C(CCCCCCCCCC)NC(=O)C(CCCCN)NC(=O)C(CCCCN)NC(=O)CCC(=O)NCCCCC(C(=O)NCC(N)=O)NC1=O (stereo not drawn) (KK[ξGly(decyl)][ξGly(decyl)]KG-NH2; linker N-5 via Suc; configuration not given here) | – | – | – | – | – | – | – | – | – | – | – | – | – | – | – | – | – | – | – | – | MIC [21]: 0.5 µM (≈ 0.468 µg/mL); MIC [22]: 0.5 µM (≈ 0.468 µg/mL); MIC [23]: 1.9 µM (≈ 1.78 µg/mL); MIC [24]: 0.9 µM (≈ 0.842 µg/mL); MIC [25]: 1.2 µM (≈ 1.12 µg/mL); MIC [26]: 1.4 µM (≈ 1.31 µg/mL); MIC [27]: 0.5 µM (≈ 0.468 µg/mL); MIC [28]: 0.7 µM (≈ 0.655 µg/mL); MIC [29]: 0.9 µM (≈ 0.842 µg/mL); MIC [30]: 0.9 µM (≈ 0.842 µg/mL); MIC [31]: 0.2 µM (≈ 0.187 µg/mL); MIC [32]: 0.3 µM (≈ 0.281 µg/mL); MIC [33]: ≥ 30 µM; MIC [34]: > 30 µM; MIC [35]: > 30 µM; MIC [36]: 15 µM (≈ 14 µg/mL); MIC [37]: 30 µM (≈ 28.1 µg/mL); MIC [38]: > 30 µM
COLISTIN | – | – | – | – | – | – | – | – | – | – | – | – | – | – | – | 0.04 | – | – | – | – | MIC [13]: 0.02 µM; MIC [14]: 0.04 µM; MIC [15]: 0.04 µM; MIC [17]: 0.09 µM; MIC ([18]; ATCC BAA-2146): 0.04 µM
CCCCCCCCCCC(NC(=O)C(CCCCCCCCCC)NC(=O)C(CCCCNC(=O)C(N)CCCCN)NC(=O)C(N)CCCCN)C(N)=O (stereo not drawn) (H-KK(Lys)[ξGly(decyl)][ξGly(decyl)]-NH2; configuration not given here) | 0.1 (≈ 0.0796 µg/mL) | 0.06 (≈ 0.0478 µg/mL) | 0.1 (≈ 0.0796 µg/mL) | 0.1 (≈ 0.0796 µg/mL) | 0.1 (≈ 0.0796 µg/mL) | 0.1 (≈ 0.0796 µg/mL) | 0.2 (≈ 0.159 µg/mL) | 0.1 (≈ 0.0796 µg/mL) | 0.1 (≈ 0.0796 µg/mL) | 0.2 (≈ 0.159 µg/mL) | 0.2 (≈ 0.159 µg/mL) | 0.2 (≈ 0.159 µg/mL) | 30 (≈ 23.9 µg/mL) | > 30 | > 30 | > 30 | 30 (≈ 23.9 µg/mL) | > 30 | > 15 | ≥ 15 | –
CN[C@@H](CC(C)C)C(=O)N[C@H]1C(=O)N[C@@H](CC(N)=O)C(=O)N[C@H]2C(=O)N[C@H]3C(=O)N[C@H](C(=O)N[C@@H](C(=O)O)c4cc(O)cc(O)c4-c4cc3ccc4O)[C@H](O)c3ccc(c(Cl)c3)Oc3cc2cc(c3O[C@H]2O[C@@H](CO)[C@H](O)[C@@H](O)[C@@H]2O[C@@H]2C[C@@](C)(N)[C@@H](O)[C@@H](C)O2)Oc2ccc(cc2Cl)[C@H]1O | 0.6 (≈ 0.87 µg/mL) | 0.7 (≈ 1.01 µg/mL) | 1 (≈ 1.45 µg/mL) | 2.8 (≈ 4.06 µg/mL) | 1 (≈ 1.45 µg/mL) | 5.5 (≈ 7.97 µg/mL) | > 44 | > 44 | > 44 | 0.7 (≈ 1.01 µg/mL) | > 44 | > 44 | – | – | – | – | – | – | – | – | Activity [39]: Active; Activity [40]: Active
